Assay: Solubility in water
Format: physicochemical
Conditions: at pH about 5

CC[C@H](C)[C@H](NC(=O)[C@H](CCC(=O)O)NC(=O)[C@H](CO)NC(=O)[C@@H](NC(=O)[C@@H](N)CO)C(C)C)C(=O)N[C@@H](CCC(N)=O)C(=O)N[C@@H](CC(C)C)C(=O)N[C@@H](CCSC)C(=O)N[C@@H](Cc1cnc[nH]1)C(=O)N[C@@H](CC(N)=O)C(=O)N[C@@H](CC(C)C)C(=O)NCC(=O)N[C@@H](CCCCN)C(=O)N[C@@H](Cc1cnc[nH]1)C(=O)N[C@@H](CC(C)C)C(=O)N[C@@H](CC(N)=O)C(=O)N[C@@H](CO)C(=O)N[C@@H](CCSC)C(=O)N[C@@H](CCC(=O)O)C(=O)N[C@@H](CCCN=C(N)N)C(=O)N[C@H](C(=O)N[C@@H](CCC(=O)O)C(=O)N[C@@H](Cc1c[nH]c2ccccc12)C(=O)N[C@@H](CC(C)C)C(=O)N[C@@H](CCCN=C(N)N)C(=O)N[C@@H](CCCCN)C(=O)N[C@@H](CCCCN)C(=O)N[C@@H](CC(C)C)C(=O)N[C@@H](CCC(N)=O)C(=O)N[C@@H](CC(=O)O)C(=O)N[C@H](C(=O)N[C@@H](Cc1cnc[nH]1)C(=O)N[C@@H](CC(N)=O)C(=O)N[C@@H](Cc1ccccc1)C(=O)O)C(C)C)C(C)C [hPTH(1-34)]
solubility in water (concentration): > 20%
